From ChEMBL document CHEMBL3507680, “University of Dundee, Gates Library screen for HepG2 cell viability” come the findings set out here.

The nature of this data set: Human HepG2 cell viability assay in 384 well format. The class given is toxicity, cell-based. Conditions: HepG2 cells, read-out: Inhibition. Also on record: dose 125 nL, time 70.5 hour; concentration not given beside the values.

As for `CCn1c(=O)n(CC)c2cc(S(N)(=O)=O)ccc21`, the cytotoxicity at 70.5 h is -2.33%. For `CC(C)(C)NC(=O)COc1ccc(CNCc2ccccn2)cc1`, the cytotoxicity at 70.5 h turned out to be 25.3%. As to `CC(=O)N1[C@H](Cn2cncn2)C[C@@H]2CN(c3ncccn3)CC[C@@H]21`, the cytotoxicity at 70.5 h came to 1.33%. Regarding `O=C(c1ccnnc1)N1CC[C@H](OCC2CC2)[C@@H]1Cc1ccncc1`, the cytotoxicity at 70.5 h is -1.15%.

Turning to `Cc1ncnc2c1CCN(C(=O)c1cnccn1)CC2`, the cytotoxicity at 70.5 h was -0.588%. For the compound `O=C(C1CC=CC1)N1CCC2(CCC(=O)N2Cc2cccc(F)c2)CC1`, the cytotoxicity at 70.5 h is 2.09%. Regarding `CO[C@@H]1CCN(c2ncccn2)[C@H]1Cc1ccccc1`, the cytotoxicity at 70.5 h turned out to be 1.42%. With `CN1CCN(Cc2cn3c(n2)CN(C(=O)c2ccco2)CC3)CC1` the figure was 1.76%; with `COCCN1C[C@H]2CCN(c3ncccn3)CC[C@H]2S1(=O)=O`, -3.17%; with `O=C(C1CC=CC1)N1CCC2(CCN(Cc3cccc(F)c3)CC2)C1`, -3.05%. With `CCN(CC)CCN1CCO[C@H]2[C@@H](OCc3ccccn3)CC[C@@H]21` the figure was -4.9%; with `Cc1ccc(CN2CCOC3(CCCN(C(=O)c4ccco4)C3)C2)o1` (centres undefined), -5.05%; with `O=C(C1CC=CC1)N1CCc2ncnc(-c3ccncc3)c2CC1`, 0.995%.

As for `COCC(=O)N1CC[C@@H]2CN(Cc3ccccc3)S(=O)(=O)[C@@H]2CC1`, the cytotoxicity at 70.5 h is -5.37%. With `CC(C)(C)C(=O)N1CCC2(COCc3cnc(N4CCOCC4)nc32)C1` (centres undefined), the cytotoxicity at 70.5 h was -19.1%.

`O=c1cc(CN2CCCC2)nc2n1CCCN(Cc1ccsc1)C2`: the cytotoxicity at 70.5 h was -17.6%. For the compound `Cn1cc(CN2CC[C@H]3OCC[C@@H](C(=O)N4CCCCO4)[C@@H]3C2)cn1`, the cytotoxicity at 70.5 h was -15.8%.

As for `CCc1ncnc2c1CCN(C(=O)Cc1ccccn1)CC2`, the cytotoxicity at 70.5 h is -19.9%.

On to `O=C1COC2(CCN(Cc3ccccn3)CC2)CN1CC1CC1`, for which the cytotoxicity at 70.5 h was -0.792%. In the case of `Cn1cnc2c1C(COCC1CC1)CN(Cc1ccsc1)C2` (centres undefined), the cytotoxicity at 70.5 h was 5.05%. In the case of `O=C(Cc1ccsc1)NCC1OCCc2cn(CC3CC3)nc21` (centres undefined), the cytotoxicity at 70.5 h was -2.21%. As to `Cn1cc(C[C@H]2[C@@H](O)CCN2C(=O)C2CC=CC2)cn1`, the cytotoxicity at 70.5 h is 7.47%. With `CNC(=O)[C@H]1C[C@@H]2CN(C(=O)Nc3ccc(F)cc3)C[C@H]1O2` the figure was -0.584%. Turning to `O=C(Nc1ccc(F)cc1)N1C[C@H]2C[C@H](C(=O)N3CCOCC3)[C@@H](C1)O2`, the cytotoxicity at 70.5 h was -1.46%. Turning to `Cc1nc([C@@H]2C[C@@H]3CCN(C(=O)c4ccnnc4)C[C@H]3O2)sc1C`, the cytotoxicity at 70.5 h stood at 5.38%. Consider `Cn1cc2c(n1)C(CNC(=O)Cc1ccsc1)OCC2` (centres undefined), for which the cytotoxicity at 70.5 h was -6.77%. For the compound `CNC(=O)[C@@]12CCCN(c3ncccn3)[C@@H]1CN(C(=O)NC(C)C)C2`, the cytotoxicity at 70.5 h was found to be 34.2%.

Turning to `O=C1NCC[C@]12CN(Cc1ccoc1)C[C@H]2c1ccccc1`, the cytotoxicity at 70.5 h turned out to be 16.2%.

`CNC(=O)C1Cn2ccnc2C2(CCN(CCF)CC2)O1` (centres undefined): the cytotoxicity at 70.5 h was -13.9%.

With `CC(C)CN1CCCC2(CCN(C(=O)c3cnccn3)C2)C1` (centres undefined), the cytotoxicity at 70.5 h is -14.6%. For the compound `COCC1CC2(CCN(C(=O)c3ccc(OC)c(Cl)c3)CC2)CO1` (centres undefined), the cytotoxicity at 70.5 h is -8.41%.

As to `O=C(c1ccsc1)N1C[C@@H]2C[C@@H](c3nnc(C4CC4)o3)O[C@@H]2C1`, the cytotoxicity at 70.5 h was -8.35%. For the compound `O=C(CCc1ccccc1)N1CCn2cc(Cn3cncn3)nc2C1`, the cytotoxicity at 70.5 h was -11.8%. For `CO[C@@H]1CC[C@H]2[C@H]1OCCN2C(=O)C1=CCCC1`, the cytotoxicity at 70.5 h was -20.1%. The value for `COc1ccc2c(c1)C1(CCN(Cc3ccncc3)CC1)N(C)CC2` was -10.8%. The value for `COCC1CC2(CCN(C(=O)c3cccc(C)c3)CC2)CO1` (centres undefined) was -12.6%. For the compound `CCOc1ccc(S(=O)(=O)N(C)Cc2cnn(CC)c2)cc1`, the cytotoxicity at 70.5 h was -2.15%. As for `Cc1c(Cl)c(C(=O)NCc2ccc(F)cc2)nn1C`, the cytotoxicity at 70.5 h was -5.73%.

As for `O=C(CCn1nc(C(F)(F)F)c(Cl)c1C1CC1)NN1CCOCC1`, the cytotoxicity at 70.5 h is -1.82%. On to `Cc1c(Cl)c(C(F)(F)F)nn1C(C)C(=O)NN1CCN(C)CC1` (centres undefined), for which the cytotoxicity at 70.5 h was -3.23%. For `CCC(=O)c1ccccc1NN1c2ccccc2C(=O)C1(C)OC` (centres undefined), the cytotoxicity at 70.5 h stood at 4.64%. In the case of `CN1CCCc2c1nc1c(c2N)CCC1`, the cytotoxicity at 70.5 h is -7.63%. With `CCn1c(=O)c2cc(S(N)(=O)=O)ccc2n(CC)c1=O`, the cytotoxicity at 70.5 h was -2.07%. Regarding `Fc1cccc(Cl)c1CNCc1ccccn1`, the cytotoxicity at 70.5 h was -12.6%. Consider `O=C(COCC(=O)N1CCCCCC1)NCc1cccc(Br)c1`, for which the cytotoxicity at 70.5 h came out at 0.154%. With `C/N=C1/c2cc3cc(OC)ccc3n2CCN1C`, the cytotoxicity at 70.5 h is -0.795%. The value for `O=c1c2c(ncn1CCCO)nc1n2CCC1` was -1.36%; that for `O=C1CC(N2CCN(c3ccccc3O)CC2)C(=O)N1Cc1cccs1` (centres undefined) was -12.2%; that for `O=C(COCC(=O)N(c1ccccc1)c1ccccc1)N1CCCC1` was -3.7%. For `Cc1c(Br)cnn1C(C)C(=O)Nc1nncs1` (centres undefined), the cytotoxicity at 70.5 h is -14.2%.

Regarding `CSc1ncn(-c2nc(N(C)C)nc(N(C)C)n2)n1`, the cytotoxicity at 70.5 h was determined as 36.4%.

Take `CCc1ccc(NC(=O)Nc2c(O)oc3ccccc3c2=O)cc1`: the cytotoxicity at 70.5 h was -9.4%. Take `CC(C)CNC(=O)CN(Cc1ccc(F)cc1)S(C)(=O)=O`: the cytotoxicity at 70.5 h is -5.67%. Turning to `CN(C)c1ccc(CC2CCN(c3cnccn3)CC2)nn1`, the cytotoxicity at 70.5 h was -7.84%. As to `O=C(C1CCOCC1)N1CCOCC(Cc2ncccn2)C1` (centres undefined), the cytotoxicity at 70.5 h was -10.5%.

Consider `Cc1nc(C(=O)N2CCOC(Cc3ccccc3)C2)co1` (centres undefined), for which the cytotoxicity at 70.5 h was determined as 23%. The value for `CN(c1ccccc1)c1ccc(CC2CCCN(CCO)C2)nn1` (centres undefined) was 30.2%. Turning to `Cc1nonc1CN(C)Cc1cnn(-c2ccc(F)cc2)c1`, the cytotoxicity at 70.5 h is 0.663%. With `Fc1ccc(F)c(CN2CCC(c3cnccn3)CC2)c1` the figure was -5.3%; with `CC1CCN(C(=O)[C@@H]2CC[C@@H]3[C@@H](CCN3c3ncc(F)cn3)O2)CC1`, -2.26%; with `O=C(c1ccc[nH]1)N1CC[C@@H](OCC2CC2)[C@@H]1Cc1cccnc1`, 0.146%.

For the compound `COCC(=O)N1CC[C@@H](OCC2CC2)[C@@H]1Cc1cccnc1`, the cytotoxicity at 70.5 h was 0.787%. `O=C([C@@H]1COC[C@H]2CN(C3CCOCC3)C[C@H]21)N1CCOCC1`: the cytotoxicity at 70.5 h was -1.42%. Turning to `CC(C)CN1CCC2(CCN(Cc3nccs3)CC2)C1=O`, the cytotoxicity at 70.5 h was determined as 0.492%.

Consider `COCC(=O)N1C[C@H]2CCCC(OCc3cccnc3)[C@H]2C1` (some centres undefined), for which the cytotoxicity at 70.5 h was -6.29%. In the case of `O=C(NCC1CC1)[C@@H]1CCO[C@@H]2CCN(Cc3ccc(F)cc3)C[C@H]21`, the cytotoxicity at 70.5 h is -4.34%. `O=S(=O)(C1CC1)N1C[C@H]2CCC[C@@]2(COc2ccccn2)C1`: the cytotoxicity at 70.5 h was -19.4%. In the case of `CC1c2ncc(COc3cccnc3)n2CCN1C(=O)Cc1ccco1` (centres undefined), the cytotoxicity at 70.5 h was -13.8%.

Take `COCCN1CC[C@H](O)[C@@H]1Cc1ccccc1`: the cytotoxicity at 70.5 h was -16.7%. With `Cn1cc(N2CC3(CCN(CC4CCOCC4)CC3)OCC2=O)cn1` the figure was -17.2%; with `CC1c2ncc(COc3cccnc3)n2CCN1C(=O)C1=CCCC1` (centres undefined), -9.18%.

Regarding `O=C([C@H]1CCCO1)N1CCCC2(CCN(Cc3ccncc3)C2=O)C1` (some centres undefined), the cytotoxicity at 70.5 h is 22.1%. For `CN(C)S(=O)(=O)N1C[C@H](Oc2cccnc2)[C@H]2OCCC[C@H]21`, the cytotoxicity at 70.5 h stood at 31.1%. The value for `CNC(=O)[C@@]12CCO[C@@H]1CCN(Cc1scnc1C)C2` was 4.42%; that for `Cn1ccnc1CN1CCC2(CC(=O)N(c3cccc(F)c3)C2)C1` (centres undefined) was -4.42%. Consider `COc1ccc(CN2CCn3cc(Cn4cccn4)nc3C2)cc1`, for which the cytotoxicity at 70.5 h is 3.13%. As to `Cc1ccc(C(=O)N2CCn3cc(CN(C)Cc4ccco4)nc3C2)o1`, the cytotoxicity at 70.5 h turned out to be 8.16%. Regarding `Cc1nc(CN2CCC3(CCN(c4ncc(F)cn4)C3)C2=O)cs1` (centres undefined), the cytotoxicity at 70.5 h is 4.85%. On to `CN(C)C(=O)N1C[C@H](Oc2ccccn2)[C@H]2OCCC[C@H]21`, for which the cytotoxicity at 70.5 h was -7.83%. On to `Cc1cc(CN2CC[C@H]3OCC[C@@]3(C(=O)NC(C)C)C2)no1`, for which the cytotoxicity at 70.5 h is 3.85%. With `CNC(=O)[C@H]1C[C@H]2OCC[C@H]2N(Cc2cccc3ccccc23)C1`, the cytotoxicity at 70.5 h is -6.96%.

Take `Cc1ccoc1C(=O)N1C[C@H]2CCC[C@@]2(COCc2ccncc2)C1`: the cytotoxicity at 70.5 h came to 5.44%. As for `c1cnn(Cc2cn3c(n2)CN(Cc2nccs2)CC3)c1`, the cytotoxicity at 70.5 h was -3.15%. In the case of `Cn1ccnc1CN1CCC2(CC1)CC(NC(=O)c1ccccn1)CO2` (centres undefined), the cytotoxicity at 70.5 h was 8.41%. Take `Cn1cccc1CN1CCC2(CCCN(C(=O)c3cnccn3)C2)C1` (centres undefined): the cytotoxicity at 70.5 h was determined as 17%. On to `Cc1ccc(C(=O)N2CCO[C@H]3[C@@H](OCc4ccccn4)CC[C@@H]32)o1`, for which the cytotoxicity at 70.5 h was -19.5%. For the compound `COCC1CN(C(=O)COc2ccccc2)Cc2cn(C)nc21` (centres undefined), the cytotoxicity at 70.5 h is -18%. For the compound `O=S(=O)(C1CC1)N1CC[C@]2(C[C@@H](Oc3ccccn3)CO2)C1`, the cytotoxicity at 70.5 h was -18.9%.

Take `CC(=O)N1[C@H](Cn2cncn2)C[C@@H]2CN(Cc3cccnc3)CC[C@@H]21`: the cytotoxicity at 70.5 h is -2.89%.

`COc1ncccc1CN1Cc2nnn(C)c2C(COCC2CC2)C1` (centres undefined): the cytotoxicity at 70.5 h was found to be 1.61%. With `Fc1cccc(N2CCCC3(C2)CN(c2ncccn2)CCO3)c1` (centres undefined), the cytotoxicity at 70.5 h is -0.813%. With `COCCN1C[C@@H]2CN(Cc3cccc(F)c3)CCC[C@]2(C(=O)O)C1` the figure was 20.7%. For `Cc1ccc(N2CC3(COCCN(Cc4cccnc4)C3)OCC2=O)s1` (centres undefined), the cytotoxicity at 70.5 h amounted to 26.6%. Consider `CN1CCN(Cc2cn3c(n2)CN(C(=O)c2ccccn2)CC3)CC1`, for which the cytotoxicity at 70.5 h is -2.89%.
